These are literature values, as cited in patent US20050255049A1, “Formoterol and mometasone aerosol formulations” (priority 2002, published 2005).

For this data set the following is noted: stated in the background.

With `C[C@@H]1C[C@H]2[C@@H]3CCC4=CC(=O)C=C[C@]4(C)[C@@]3(Cl)[C@@H](O)C[C@]2(C)[C@@]1(OC(=O)c1ccco1)C(=O)CCl` [mometasone furoate, (11 beta, 16alpha)-9,21-dichloro-17-[(2-furanylcarbonyl)oxy]-11-hydroxy-16-methylpregna-1,4-diene-3,20-dione], the density is reported as 1.4 g cm^−3.
